Laboratory results from patent US12570642B2, “GLP-IR modulating compounds” (Gilead Sciences, Inc., priority 2021, dated 2026).

Molecular target: GLP-1R (Homo sapiens, UniProt P43220)
Experiment: GLP-1R Activation - cAMP Assay
Assay type: cell-based
Conditions: each compound run on one of the two cAMP assays (Assay 1 or Assay 2, not specified)
Outline: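 CHO cells stably expressing GLP-1R, plated at 1,000 cells/well overnight, then equilibrated 1 h in HBSS with 20 mM Hepes and 0.1% BSA. Agonist added as 10-point dose response for 30 min at 37 °C. cAMP measured by HTRF (Cisbio Gs Dynamic kit); EC50 from sigmoidal fit.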

[1] = cAMP increase in CHO cells stably expressing GLP-1R

Sequence of GLP-1R (P43220 24-463): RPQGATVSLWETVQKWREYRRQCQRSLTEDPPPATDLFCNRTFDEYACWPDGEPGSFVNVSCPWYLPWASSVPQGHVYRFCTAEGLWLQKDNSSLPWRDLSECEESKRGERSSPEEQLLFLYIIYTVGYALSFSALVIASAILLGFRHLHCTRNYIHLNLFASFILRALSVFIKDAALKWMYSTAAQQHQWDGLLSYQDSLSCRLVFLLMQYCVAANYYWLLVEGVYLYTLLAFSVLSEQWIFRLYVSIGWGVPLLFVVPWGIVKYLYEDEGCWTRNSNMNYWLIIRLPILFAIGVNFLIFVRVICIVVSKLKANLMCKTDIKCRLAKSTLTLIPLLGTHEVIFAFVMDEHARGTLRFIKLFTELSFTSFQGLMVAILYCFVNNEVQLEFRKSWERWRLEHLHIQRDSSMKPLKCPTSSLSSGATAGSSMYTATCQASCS

Compound | EC50 [1] [nM] | EC50 ([…]) [nM]
COCCn1c(Cc2cc(F)c(-c3cc(N)nc(OCc4ccc(C#N)cc4F)n3)cc2F)nc2ccc(C(=O)O)cc21 [Example 45, 2-(4-(6-amino-2-((4-cyano-2-fluorobenzyl)oxy)pyrimidin-4-yl)-2,5-difluorobenzyl)-1-(2-methoxyethyl)-1H-benzo[d]imidazole-6-carboxylic Acid] | 16.7 | 
COCCn1c(Cc2ccc(-c3cccc(OCc4ccc(C#N)cc4F)c3)nc2)nc2ccc(C(=O)O)cc21 [Example 46] | 20.9 | 
CC(C)(O)C#Cc1cc(C(=O)O)cc2c1nc(Cc1cc(F)c(-c3cccc(OCc4ccc(C#N)cc4F)n3)cc1F)n2C1COCC1(C)C (stereo not shown) [Example 47] | 0.78 | 
CC1(C)COCC1n1c(Cc2cc(F)c(-c3cccc(OCc4ccc(C#N)cc4F)n3)cc2F)nc2c(C#CC3CC3)cc(C(=O)O)cc21 (stereo not shown) [Example 48, 2-(4-(6-((4-cyano-2-fluorobenzyl)oxy)pyridin-2-yl)-2,5-difluorobenzyl)-4-(cyclopropylethynyl)-1-(4,4-dimethyltetrahydrofuran-3-yl)-1H-benzo[d]imidazole-6-carboxylic Acid] | 0.21 | 
COCCn1c(Cc2nc(N)c(-c3cccc(OCc4ccc(C#N)cc4F)n3)cc2F)nc2ccc(C(=O)O)cc21 [Example 49] | 45.6 | 
COCCn1c(Cc2c(F)cc(-c3cccc(OCc4ccc(C#N)cc4F)n3)c3nccn23)nc2ccc(C(=O)O)cc21 [Example 50] | 5.24 | 
COCCn1c(C(F)c2cc(F)c(-c3cccc(OCc4ccc(C#N)cc4F)n3)cc2F)nc2ccc(C(=O)O)cc21 (stereo not shown) [Example 51] | 0.83 | 
COCCn1c(C(F)(F)c2cc(F)c(-c3cccc(OCc4ccc(C#N)cc4F)n3)cc2F)nc2ccc(C(=O)O)cc21 [Example 52] | 21.3 | 
COCCn1c(Cc2c(F)cc(-c3cccc(OCc4ccc(C#N)cc4F)n3)c3ncnn23)nc2ccc(C(=O)O)cc21 [Example 53] | 5.11 | 
COCCn1c(C(CO)c2cc(F)c(-c3cccc(OCc4ccc(C#N)cc4F)n3)cc2F)nc2ccc(C(=O)O)cc21 (stereo not shown) [Example 54] | 31.6 | 
COCCn1c(Cc2cc(F)c(-c3cccc(OCc4ccc(C#N)cc4F)n3)cc2F)nc2c(-c3cncnc3)cc(C(=O)O)cc21 [Example 55] | 25.8 | 
COCCn1c(Cc2cc(F)c(-c3cccc(OCc4ccc(C#N)cc4F)n3)cc2F)nc2c(-c3cnn(CCN4CCOCC4)c3)cc(C(=O)O)cc21 [Example 56, 2-(4-(6-((4-cyano-2-fluorobenzyl)oxy)pyridin-2-yl)-2,5-difluorobenzyl)-1-(2-methoxyethyl)-4-(1-(2-morpholinoethyl)-1H-pyrazol-4-yl)-1H-benzo[d]imidazole-6-carboxylic Acid] | 903 | 
Cn1cc(-c2cc(F)c(COc3cccc(-c4cc(F)c(Cc5nc6ccc(C(=O)O)cc6n5[C@H]5COCC5(C)C)cc4F)n3)cn2)cn1 [Example 57] | 2.06 | 
CC1(C)COC[C@@H]1n1c(Cc2cc(F)c(-c3cccc(OCc4ccc(C#N)cc4F)n3)cc2F)nc2ccc(C(=O)O)cc21 [Example 59] | 0.32 | 
COCCn1c(Cc2cc(F)c(-c3cccc(OCc4ccc(-n5ccnc5)cc4F)n3)cc2F)nc2ccc(C(=O)O)cc21 [Example 61] | 0.83 | 
N#Cc1ccc(COc2cccc(-c3cc(F)c(Cc4nc5ccc(C(=O)O)cc5n4C4CC45CC5)cc3F)n2)c(F)c1 (stereo not shown) [Example 62] | 7.32 | 
N#Cc1ccc(COc2cccc(-c3cc(F)c(Cc4nc5ccc(C(=O)O)cc5n4C4CCCC45CC5)cc3F)n2)c(F)c1 (stereo not shown) [Example 63, 2-(4-(6-((4-cyano-2-fluorobenzyl)oxy)pyridin-2-yl)-2,5-difluorobenzyl)-1-(spiro[2.4]heptan-4-yl)-1H-benzo[d]imidazole-6-carboxylic Acid] | 2.55 | 

Compound | EC50 [1] [nM] | EC50 ([…]) [nM]
N#Cc1ccc(COc2cccc(-c3cc(F)c(Cc4nc5ccc(C(=O)O)cc5n4C4CCC45CC5)cc3F)n2)c(F)c1 (stereo not shown) [Example 64, 2-(4-(6-((4-cyano-2-fluorobenzyl)oxy)pyridin-2-yl)-2,5-difluorobenzyl)-1-(spiro[2.3]hexan-4-yl)-1H-benzo[d]imidazole-6-carboxylic Acid] | 1.28 | 
CO[C@@H]1CC[C@@H]1n1c(Cc2cc(F)c(-c3cccc(OCc4ccc(C#N)cc4F)n3)cc2F)nc2ccc(C(=O)O)cc21 [Example 65, 2-(4-(6-((4-cyano-2-fluorobenzyl)oxy)pyridin-2-yl)-2,5-difluorobenzyl)-1-((1S,2R)-2-methoxycyclobutyl)-1H-benzo[d]imidazole-6-carboxylic Acid] | 5.05 | 
N#Cc1ccc(COc2cccc(-c3cc(F)c(Cc4nc5ccc(C(=O)O)cc5n4C45COC(C4)C5)cc3F)n2)c(F)c1 [Example 66, 1-(2-oxabicyclo[2.1.1]hexan-4-yl)-2-(4-(6-((4-cyano-2-fluorobenzyl)oxy)pyridin-2-yl)-2,5-difluorobenzyl)-1H-benzo[d]imidazole-6-carboxylic Acid] | 12.9 | 
N#Cc1ccc(COc2cccc(-c3cc(F)c(Cc4nc5ccc(C(=O)O)cc5n4N4CCCC4)cc3F)n2)c(F)c1 [Example 67, 2-(4-(6-((4-cyano-2-fluorobenzyl)oxy)pyridin-2-yl)-2,5-difluorobenzyl)-1-(pyrrolidin-1-yl)-1H-benzo[d]imidazole-6-carboxylic Acid] | 7.25 | 
N#Cc1ccc(COc2cccc(-c3cc(F)c(Cc4nc5ccc(C(=O)O)cc5n4C4COC5CC4C5)cc3F)n2)c(F)c1 (stereo not shown) [Example 68, 1-(2-oxabicyclo[3.1.1]heptan-4-yl)-2-(4-(6-((4-cyano-2-fluorobenzyl)oxy)pyridin-2-yl)-2,5-difluorobenzyl)-1H-benzo[d]imidazole-6-carboxylic Acid] | 0.33 | 
N#Cc1ccc(COc2cccc(-c3cc(F)c(Cc4nc5ccc(C(=O)O)cc5n4C45COCC4C5)cc3F)n2)c(F)c1 (stereo not shown) [Example 69, 1-(3-oxabicyclo[3.1.0]hexan-1-yl)-2-(4-(6-((4-cyano-2-fluorobenzyl)oxy)pyridin-2-yl)-2,5-difluorobenzyl)-1H-benzo[d]imidazole-6-carboxylic Acid] | 13.8 | 
CO[C@H]1CCOC[C@H]1n1c(Cc2cc(F)c(-c3cccc(OCc4ccc(C#N)cc4F)n3)cc2F)nc2ccc(C(=O)O)cc21 [Example 70, 2-(4-(6-((4-cyano-2-fluorobenzyl)oxy)pyridin-2-yl)-2,5-difluorobenzyl)-1-((3R,4S)-4-methoxytetrahydro-2H-pyran-3-yl)-1H-benzo[d]imidazole-6-carboxylic Acid] | 0.26 | 
N#Cc1ccc(COc2cccc(-c3cc(F)c(Cc4nc5ccc(C(=O)O)cc5n4[C@H]4C[C@H]5CO[C@@H]4C5)cc3F)n2)c(F)c1 [Example 71, 1-((1R,4R,6S)-2-oxabicyclo[2.2.1]heptan-6-yl)-2-(4-(6-((4-cyano-2-fluorobenzyl)oxy)pyridin-2-yl)-2,5-difluorobenzyl)-1H-benzo[d]imidazole-6-carboxylic Acid] | 1.19 | 
CC1(C)OCCC1n1c(Cc2cc(F)c(-c3cccc(OCc4ccc(C#N)cc4F)n3)cc2F)nc2ccc(C(=O)O)cc21 (stereo not shown) [Example 74, 2-(4-(6-((4-cyano-2-fluorobenzyl)oxy)pyridin-2-yl)-2,5-difluorobenzyl)-1-(2,2-dimethyltetrahydrofuran-3-yl)-1H-benzo[d]imidazole-6-carboxylic Acid] | 4.38 | 
CC1(C)COCC1n1c(Cc2cc(F)c(-c3cccc(OCc4ccc(C#N)cc4F)n3)cc2F)nc2ccc(C(=O)O)cc21 (stereo not shown) [Example 78, 2-(4-(6-((4-cyano-2-fluorobenzyl)oxy)pyridin-2-yl)-2,5-difluorobenzyl)-1-(4,4-dimethyltetrahydrofuran-3-yl)-1H-benzo[d]imidazole-6-carboxylic Acid] | 0.36 | 
N#Cc1ccc(COc2cccc(-c3cc(F)c(Cc4nc5ccc(C(=O)O)cc5n4[C@@H]4CO[C@H]5COC[C@H]54)cc3F)n2)c(F)c1 [Example 79, 2-(4-(6-((4-cyano-2-fluorobenzyl)oxy)pyridin-2-yl)-2,5-difluorobenzyl)-1-((3S,3aR,6aR)-hexahydrofuro[3,4-b]furan-3-yl)-1H-benzo[d]imidazole-6-carboxylic Acid] | 5.62 | 
N#Cc1ccc(COc2cccc(-c3cc(F)c(Cc4nc5ccc(C(=O)O)cc5n4[C@@H]4CO[C@@H]5CNC[C@H]45)cc3F)n2)c(F)c1 [Example 80, 2-(4-(6-((4-cyano-2-fluorobenzyl)oxy)pyridin-2-yl)-2,5-difluorobenzyl)-1-((3S,3aR,6aS)-hexahydro-2H-furo[2,3-c]pyrrol-3-yl)-1H-benzo[d]imidazole-6-carboxylic Acid] | 4.91 | 
N#Cc1ccc(COc2cccc(-c3cc(F)c(Cc4nc5ccc(C(=O)O)cc5n4C4CCS(=O)(=O)C4)cc3F)n2)c(F)c1 (stereo not shown) [Example 81, 2-(4-(6-((4-cyano-2-fluorobenzyl)oxy)pyridin-2-yl)-2,5-difluorobenzyl)-1-(1,1-dioxidotetrahydrothiophen-3-yl)-1H-benzo[d]imidazole-6-carboxylic Acid] | 40.9 | 
N#Cc1ccc(COc2cccc(-c3cc(F)c(Cc4nc5ccc(C(=O)O)cc5n4C4CCOCC45CC5)cc3F)n2)c(F)c1 (stereo not shown) [Example 82, 2-(4-(6-((4-cyano-2-fluorobenzyl)oxy)pyridin-2-yl)-2,5-difluorobenzyl)-1-(5-oxaspiro[2.5]octan-8-yl)-1H-benzo[d]imidazole-6-carboxylic Acid] | 1.6 | 
CC1(C)COCCC1n1c(Cc2cc(F)c(-c3cccc(OCc4ccc(C#N)cc4F)n3)cc2F)nc2ccc(C(=O)O)cc21 (stereo not shown) [Example 83, 2-(4-(6-((4-cyano-2-fluorobenzyl)oxy)pyridin-2-yl)-2,5-difluorobenzyl)-1-(3,3-dimethyltetrahydro-2H-pyran-4-yl)-1H-benzo[d]imidazole-6-carboxylic Acid] | 0.62 | 
COCCn1c(Cc2cc(F)c(-c3cccc(OCc4ccc(C#N)cc4F)n3)cc2F)nc2c(-c3ccccn3)cc(C(=O)O)cc21 [Example 84] | 1.34 | 
COC(=O)N1C[C@H](OC)[C@H](n2c(Cc3cc(F)c(-c4cccc(OCc5ccc(C#N)cc5F)n4)cc3F)nc3ccc(C(=O)O)cc32)C1 [Example 85] |  | 1440
